From PMC10820135, “Pharmacokinetic, Tissue Distribution, Metabolite, and Toxicity Evaluation of the Matrine Derivative, (6aS, 10S, 11aR, 11bR, 11cS)-10-Methylaminododecahydro-3a, 7a-Diaza-benzo (de) Anthracene-8-thione” (Molecules, 2024)
Entries after “also recorded” stand apart in the source; their conditions may differ. Where two headings read alike, the source gives them in different places.

Experiments:
[1] = Plasma pharmacokinetics of MASM in rats, non-compartmental analysis; format: in vivo, Sprague-Dawley rats; conditions: rat
Description: (§1) UHPLC analysis was performed using a Thermo Accela AS system, employing an ACQUITY UPLC®BEH C18 (Waters Corporation, Wexfords, Ireland) (1.7 µm, 2.1 × 100 mm) column and a binary solvent system consisting of water containing 0.1% formic acid as mobile phase A and acetonitrile as mobile phase B. For pharmacokinetic evaluation, the gradient elution was set as follows: 97% A from 0 to 2 min, 97–70% A from 2 to 3 min, 70–20% A from 3 to 3.5 min, 20% A from 3.5 to 3.6 min, 20–97% A from 3.6 to 3.7 min, and 97% A from 3.7 to 5 min. For the metabolic test, the gradient elution in full scan mode was set as follows: 97% A from 0 to 2 min, 97–70% A from 2 to 4 min, 70–20% A from 4 to 6 min, 20% A from 6 to 7 min, 20–97% A from 7 to 8 min, and 97% A from 8 to 10 min. The flow rate was 0.2 mL/min, with a temperature of 40 °C maintained and an injection volume of 5 μL. The QQQ-MS/MS analysis was conducted using a Thermo TSQ QUANTUM ACCESS MAX system equipped with an electrospray ionization (ESI) source. The spray voltages were set at 4.0 kV and 2.5 kV for positive and negative ion modes, respectively; capillary and vaporizer temperatures were 320 °C and 350 °C, respectively; sheath and aux gas pressures were 35 and 10 psi, respectively.
A precisely measured MASM sample weighing 400 mg was dissolved in normal saline to create aqueous solutions with concentrations of 8.0, 6.0, and 1.5 mg/mL for intraperitoneal, oral, and intravenous administrations at doses of 80 mg/kg, 60 mg/kg, and 15 mg/kg, respectively.
Seventy Sprague-Dawley rats were fasted overnight before dosing, with free access to water. Subsequently, the rats were randomly and equally divided into 7 groups: the control groups received 3 different routes of administration: intravenous, intraperitoneal, and intragastric (NS, saline 1 mL/100 g); MASM intraperitoneal group (A, i.p. 80 mg/kg), MASM intragastrical group (B, i.g. 60 mg/kg), MASM intravenous group (C, i.v. 15 mg/kg), and DMASM intragastrical group (D, i.g. 60 mg/kg). It is important to note that the recommended clinical dose of matrine injection is 0.15 g, which is equivalent to a dosage of 15 mg/kg in rats. MASM was administered via tail vein injection at a dosage of 1 mL/100 g for intravenous dosing, while for intraperitoneal dosing, MASM was injected at the lower-right side of the abdomen of rats. Blood samples (approximately 0.3 mL) were collected from the eye socket at specific time intervals (0.083, 0.167, 0.25, 0.5, 1, 1.5, 2, 4, 6, 9, 12, and 24 h) after administration for each group. These samples were then placed in centrifuge tubes containing heparin sodium, subjected to centrifugation at 4000 rpm for 15 min, and the resulting supernatant was collected and stored at −80 °C until further analysis. During the analysis of the plasma sample, protein precipitation was carried out using a plasma-to-acetonitrile ratio of 1:3, and 5μL of the resulting supernatant was injected. The developed UHPLC-QQQ-MS/MS analysis method underwent a series of validations, and the peak area of the plasma sample was obtained employing the Xcalibur 2.2 data-processing system. The concentrations of MASM in plasma were then determined using linear regression equations. Subsequently, the in vivo pharmacokinetic parameters were calculated using the non-compartment model in DAS 3.0 software. Blood concentration–time curves were generated using Prism 8.0 (GraphPad Software Inc., San Diego, CA, USA).

[2] = Tissue distribution of MASM in rats; format: in vivo, Sprague-Dawley rats; conditions: rat
Description: as §1
A total of 36 Sprague-Dawley rats (18 male and 18 female) were randomly and equally assigned to 6 groups, with 3 male and 3 female rats in each group. Among these groups, 3 groups were administrated MASM intragastrically at a dosage of 60 mg/kg, while the remaining 3 groups received intraperitoneal administration of MASM at a dosage of 80 mg/kg. The rats in each group were euthanized at three different time points: 1 h, 2 h, and 24 h after administration. Subsequently, various tissues, including the heart, liver, spleen, lung, kidney, stomach, muscle, and brain, were promptly collected and weighed. These tissues were then homogenized using acetonitrile at a ratio of 1:10 and stored at a temperature of −80 °C until further analysis. During the analysis of the tissue sample, the protein was precipitated following the tissues: acetonitrile with a ratio of 1:3 and a volume of 5μL of the resulting supernatant were injected. The UHPLC-QQQ-MS/MS analysis method that was developed, underwent a comprehensive validation process, and the concentration of MASM in each tissue was determined using linear regression equations. Bar graphs were generated by applying Prism 8.0 (GraphPad Software Inc., San Diego, CA, USA).

[3] = Sprague-Dawley, plasma, iv, i.v. 15 mg/kg, n = 6, mean ± SD
[4] = i.g. 60 mg/kg, n = 6, mean ± SD
[5] = i.p. 80 mg/kg, n = 6, mean ± SD

With `CNC1CC(=S)N2CC3CCCN4CCCC(C34)C2C1` [MASM, (6aS, 10S, 11aR, 11bR, 11cS)-10-methylaminododecahydro-3a, 7a-diaza-benzo (de) anthracene-8-thione] the bioavailability ([1]; Sprague-Dawley, plasma, intraperitoneal, i.p. 80 mg/kg vs i.v. 15 mg/kg, n = 6, mean ± SD, read-out: F(%) bioavailability) was 54 ± 19.4%, the Cmax ([1]; Sprague-Dawley, plasma, ip, i.p. 80 mg/kg, n = 6, mean ± SD) was 2210 ± 930 ng/mL and the half-life ([1]; Sprague-Dawley, plasma, ip, i.p. 80 mg/kg, n = 6, mean ± SD, read-out: t 1/2 (elimination half-life) (converted)) was 9.97 ± 3.95 h. The Cmax [1, 3] was 780 ± 540 ng/mL, the clearance [1, 3] was 71.7 mL/min/kg and the Vd ([1]; Sprague-Dawley, plasma, iv, i.v. 15 mg/kg, n = 6, mean ± SD, read-out: V d (apparent volume of distribution)) was 36.6 ± 17.8 L/kg. For the same compound, the half-life ([1]; Sprague-Dawley, plasma, iv, i.v. 15 mg/kg, n = 6, mean ± SD, read-out: t 1/2 (elimination half-life) (converted)) was 10.5 ± 8.84 h, the bioavailability ([1]; Sprague-Dawley, plasma, oral, i.g. 60 mg/kg vs i.v. 15 mg/kg, n = 6, mean ± SD, read-out: F(%) absolute intragastrical bioavailability) was 44.5 ± 12.3% and the half-life ([1]; Sprague-Dawley, plasma, other: intravenous, intravenous, intraperitoneal or intragastric, read-out: t1/2 regardless of the route of administration (converted)) was ~10 h. For the same compound, the Cmax ([1]; Sprague-Dawley, plasma, po, i.g. 60 mg/kg, n = 6, mean ± SD) was 1380 ± 570 ng/mL, the half-life ([1]; Sprague-Dawley, plasma, po, i.g. 60 mg/kg, n = 6, mean ± SD, read-out: t 1/2 (elimination half-life) (converted)) was 10.2 ± 4.95 h and the Tmax ([1]; Sprague-Dawley, plasma, ip, 80 mg/kg, i.p. 80 mg/kg, n = 6, mean ± SD) was 0.21 ± 0.04 h. For the same compound, the AUC(0-t) ([1]; Sprague-Dawley, plasma, ip, 80 mg/kg, i.p. 80 mg/kg, n = 6, mean ± SD, read-out: AUC(0–24)) was 15600 ± 5610 ng·h/mL, the AUC(0-t) ([1]; Sprague-Dawley, plasma, ip, 80 mg/kg, i.p. 80 mg/kg, n = 6, mean ± SD, read-out: AUC(0–t)) was 12400 ± 5320 ng·h/mL and the Tmax ([1]; Sprague-Dawley, plasma, iv, 15 mg/kg, i.v. 15 mg/kg, n = 6, mean ± SD) was 0.17 ± 0.17 h. It also gave an AUC(0-t) ([1]; Sprague-Dawley, plasma, iv, 15 mg/kg, i.v. 15 mg/kg, n = 6, mean ± SD, read-out: AUC(0–24)) of 5410 ± 3220 ng·h/mL, an AUC(0-t) ([1]; Sprague-Dawley, plasma, iv, 15 mg/kg, i.v. 15 mg/kg, n = 6, mean ± SD, read-out: AUC(0–t)) of 4280 ± 2400 ng·h/mL and a Tmax ([1]; Sprague-Dawley, plasma, po, 60 mg/kg, i.g. 60 mg/kg, n = 6, mean ± SD) of 1.3 h. It also gave an AUC(0-t) ([1]; Sprague-Dawley, plasma, po, 60 mg/kg, i.g. 60 mg/kg, n = 6, mean ± SD, read-out: AUC(0–24)) of 13700 ± 7550 ng·h/mL, an AUC(0-t) ([1]; Sprague-Dawley, plasma, po, 60 mg/kg, i.g. 60 mg/kg, n = 6, mean ± SD, read-out: AUC(0–t)) of 10900 ± 4780 ng·h/mL and a CL [1, 4] of 93.3 ± 49 mL/min/kg. The “V d (apparent volume of distribution)” value [1, 4] was 69.43 ± 22.58 L/kg, the CL [1, 5] was 95.5 ± 33.8 mL/min/kg and the “V d (apparent volume of distribution)” value [1, 5] was 84.74 ± 57.17 L/kg. For the same compound, the “tissues with concentration surpassing other organs at 1 h” value ([2]; following the initial hour) was “liver, kidney, and intestine”, the “time at which Cmax in liver tissue was achieved” value ([2]; i.g. 60 mg/kg and i.p. 80 mg/kg) was ≤ 1 h and the “tissue with higher concentration than other organs at 2 h and 24 h” value ([2]; i.g. 60 mg/kg or i.p. 80 mg/kg) was “spleen and intestine”. The “tissues of main distribution / higher accumulation” value ([2]; i.g. 60 mg/kg or i.p. 80 mg/kg, 1, 2, 24 h) was “primarily distributed in the liver, kidney, and spleen tissues” and the detection in tissues ([2]; heart, liver, spleen, lung, kidney, brain, muscle, intestine, stomach) was “detected in all rat tissues including the brain; also recorded: detected in various tissues at 1, 2, and 24 h after administration”.
